Experimental data as given in patent US11800867B2, “Methods of repelling biting arthropods, reducing pathogen spread and treating arthropod infestation” (priority 2016, dated 2023).
“And” between values parts separate entries of the source, which are not always exact repeats. Equal values may be shown once.

Tests used:
Assay in all cases: Treated filter paper knockdown (KD) and mortality trial (Example 4)
Assay type in all cases: in vivo
[1] = tested on: biting midges (Culicoides sp.); conditions: Nootkatone 1% in ethanol on filter paper
Procedure: (§1) A laboratory trial was conducted to assess the efficacy of nootkatone applied to filter paper against aphids (Schizaphis gramium), dust mites (Dermatophagoides sp.), termites (Reticulitermes flavipes), deer ticks (Ixodes scapularis), biting midges (Culicoides sp.), fire ants (Solenopsis invicta), and mosquitoes (Aedes aegypti and Culex), in terms of knockdown (KD) and mortality. One concentration (1% in ethanol) of nootkatone was assessed for most species, but three concentrations (0.25%, 0.5%, and 1% in ethanol) were assessed for mosquitoes. A negative control group, consisting of filter paper treated with ethanol, was also assessed for comparison purposes for each species.
(§2) Test systems were introduced to treated filter paper, allowed to dry, and then introduced into treatment chamber, where treated arthropods were monitored at intervals up to 72 hours. If 100% mortality was obtained prior to 72 hours, the individual study was halted.
(§3) Midges and mosquitoes—5 replicates of 10 insects per treatment were tested. Inverted 10 ounce (295 ml) clear plastic cups with a 0.5 inch (1.27 cm) hole burned into the center of the bottom, and with the sides coated with Fluon® was used at the treatment containers. The bottoms of the containers consisted of Petri dish lids 3.54 inches (9.0 cm) in diameter lined with a treated filter paper circle the same diameter. The cup was placed over the filter paper in the lid and both were secured in place using 2 rubber bands. The insects were introduced through the hole in the cup, and a plastic disc was placed over the opening to prevent escapes.
(§4) Readings were discontinued if treated mortality reaches […], or control mortality exceeds 20%.

[2] = tested on: Southern house mosquito (Culex)
Procedure: as §1, §2, §3, §4

[3] = tested on: Yellow Fever mosquito (Aedes aegypti)
Procedure: as §1, §2, §3, §4

[4] = Nootkatone 0.25% in ethanol on filter paper, 30 minutes post introduction
[5] = Nootkatone 0.25% in ethanol on filter paper, 1 hour post introduction
[6] = Nootkatone 0.25% in ethanol on filter paper, 4 hours post introduction
[7] = Nootkatone 0.25% in ethanol on filter paper, 8 hours post introduction
[8] = Nootkatone 0.25% in ethanol on filter paper, 24 hours post introduction
[9] = Nootkatone 0.25% in ethanol on filter paper, 48 hours post introduction
[10] = Nootkatone 0.25% in ethanol on filter paper, 72 hours post introduction
[11] = Nootkatone 0.5% in ethanol on filter paper, 30 minutes post introduction
[12] = Nootkatone 0.5% in ethanol on filter paper, 1 hour post introduction
[13] = Nootkatone 0.5% in ethanol on filter paper, 4 hours post introduction
[14] = Nootkatone 0.5% in ethanol on filter paper, 8 hours post introduction
[15] = Nootkatone 0.5% in ethanol on filter paper, 24 hours post introduction
[16] = Nootkatone 0.5% in ethanol on filter paper, 48 hours post introduction
[17] = Nootkatone 0.5% in ethanol on filter paper, 72 hours post introduction
[18] = Nootkatone 1% in ethanol on filter paper, 30 minutes post introduction
[19] = Nootkatone 1% in ethanol on filter paper, 1 hour post introduction
[20] = Nootkatone 1% in ethanol on filter paper, 4 hours post introduction
[21] = Nootkatone 1% in ethanol on filter paper, 8 hours post introduction
[22] = Nootkatone 1% in ethanol on filter paper, 24 hours post introduction
[23] = Nootkatone 1% in ethanol on filter paper, 48 hours post introduction
[24] = Nootkatone 1% in ethanol on filter paper, 72 hours post introduction

## C=C(C)[C@@H]1CCC2=CC(=O)C[C@@H](C)[C@]2(C)C1 [Nootkatone, nootkatone]
[1]
  Time required for greater than 90% killing: 24 h
[1]; 30 minutes post introduction
  Means Affected: 100.0%
  Means Dead: 0.0%
  Means KD: 100.0%
[1]; 1 hour post introduction
  Means Affected: 100.0%
  Means Dead: 1.8%
  Means KD: 98.2%
[1]; 4 hours post introduction
  Means Affected: 100.0%
  Means Dead: 78.7%
  Means KD: 21.3%
[1]; 24 hours post introduction
  Means Affected: 100.0%
  Means Dead: 100%
  Means KD: 0.0%
[1]; 24 hours post introduction, listed as nootkatone
  Means Dead: 100%
[2]; [4]
  Means Affected: 24.0%
  Means Dead: 0.0%
  Means KD: 24.0%
[2]; [5]
  Means Affected: 22.0%
  Means Dead: 0.0%
  Means KD: 22.0%
[2]; [6]
  Means Affected: 32.2%
  Means Dead: 0.0%
  Means KD: 32.2%
[2]; [7]
  Means Affected: 18.0%
  Means Dead: 0.0%
  Means KD: 18.0%
[2]; [8]
  Means Affected: 26.2%
  Means Dead: 12.2%
  Means KD: 14.0%
[2]; [9]
  Means Affected: 75.6%
  Means Dead: 61.3%
  Means KD: 14.2%
[2]; [10]
  Means Affected: 76.0%
  Means Dead: 74.0%
  Means KD: 2.0%
[2]; [11]
  Means Affected: 0.0%
  Means Dead: 0.0%
  Means KD: 0.0%
[2]; [12]
  Means Affected: 2.5%
  Means Dead: 0.0%
  Means KD: 2.5%
[2]; [13]
  Means Affected: 4.0%
  Means Dead: 0.0%
  Means KD: 4.0%
[2]; [14]
  Means Affected: 4.0%
  Means Dead: 0.0%
  Means KD: 4.0%
[2]; [15]
  Means Affected: 29.0%
  Means Dead: 10.5%
  Means KD: 18.5%
[2]; [16]
  Means Affected: 72.0%
  Means Dead: 49.0%
  Means KD: 23.0%
[2]; [17]
  Means Affected: 82.0%
  Means Dead: 82%
  Means KD: 0.0%
[2]; [18]
  Means Affected: 2.2%
  Means Dead: 0.0%
  Means KD: 2.2%
[2]; [19]
  Means Affected: 52.2%
  Means Dead: 0.0%
  Means KD: 52.2%
[2]; [20]
  Means Affected: 83.7%
  Means Dead: 0.0%
  Means KD: 83.7%
[2]; [21]
  Means Affected: 92.0%
  Means Dead: 13.1%
  Means KD: 78.9%
[2]; [22]
  Means Affected: 100.0%
  Means Dead: 97.8%
  Means KD: 2.2%
[2]; [23]
  Means Affected: 100.0%
  Means Dead: 100.0%
  Means KD: 0.0%
[2]; [24]
  Means Affected: 100.0%
  Means Dead: 100%
  Means KD: 0.0%
[3]; [4]
  Means Affected: 17.8%
  Means Dead: 17.8%
  Means KD: 0.0%
[3]; [5]
  Means Affected: 20.0%
  Means Dead: 20.0%
  Means KD: 0.0%
[3]; [6]
  Means Affected: 20.0%
  Means Dead: 20.0%
  Means KD: 0.0%
[3]; [7]
  Means Affected: 17.8%
  Means Dead: 15.6%
  Means KD: 2.2%
[3]; [8]
  Means Affected: 17.8%
  Means Dead: 13.3%
  Means KD: 4.4%
[3]; [9]
  Means Affected: 17.6%
  Means Dead: 15.6%
  Means KD: 2.0%
[3]; [10]
  Means Affected: 26.0%
  Means Dead: 17.6%
  Means KD: 8.4%
[3]; [11]
  Means Affected: 0.0%
  Means Dead: 0.0%
  Means KD: 0.0%
[3]; [12]
  Means Affected: 0.0%
  Means Dead: 0.0%
  Means KD: 0.0%
[3]; [13]
  Means Affected: 5.3%
  Means Dead: 0.0%
  Means KD: 5.3%
[3]; [14]
  Means Affected: 29.9%
  Means Dead: 0.0%
  Means KD: 29.9%
[3]; [15]
  Means Affected: 83.1%
  Means Dead: 22.5%
  Means KD: 60.6%
[3]; [16]
  Means Affected: 87.1%
  Means Dead: 72.0%
  Means KD: 15.1%
[3]; [17]
  Means Affected: 100.0%
  Means Dead: 92% and 92.5%
  Means KD: 7.5%
[3]; [18]
  Means Affected: 0.0%
  Means Dead: 0.0%
  Means KD: 0.0%
[3]; [19]
  Means Affected: 1.8%
  Means Dead: 0.0%
  Means KD: 1.8%
[3]; [20]
  Means Affected: 46.9%
  Means Dead: 0.0%
  Means KD: 46.9%
[3]; [21]
  Means Affected: 80.4%
  Means Dead: 0.0%
  Means KD: 80.4%
[3]; [22]
  Means Affected: 84.0%
  Means Dead: 65.5%
  Means KD: 18.5%
[3]; [23]
  Means Affected: 90.0%
  Means Dead: 80.4%
  Means KD: 9.6%
[3]; [24]
  Means Affected: 94.0%
  Means Dead: 92%
  Means KD: 2.0%
